Results: patent publication US10017762B2, “Compositions and methods for treating or preventing lupus” (The United States of America, as represented by the …, priority 2010, dated 2018)

How the values were obtained:
blood basophils = assay: Blood basophil numbers and HLA-DR expression in SLE patients under immunosuppressive treatments; format: in vivo, human; settings: low dose (≤7.5 mg/day) vs medium to high dose (>7.5 mg/day) prednisone
Procedure: Blood was harvested in EDTA-coated tubes. 4 ml of blood was used to harvest plasma sample. For this purpose, blood was centrifugated at 600×g for 20 minutes at 4° C. Plasma phase was then harvested, and samples kept at […] until further analysis. For basophils analysis, 10 ml of whole blood were added to 20 ml of ACK lysing buffer and incubated 5 min at room temperature and 5 more minutes on ice. 30 ml of PBS was added, and cells were centrifuged (500×g, 5 min). This step was repeated three times total until no more red blood cells were visible. Cells were then resuspended into 10 ml (original volume) of FACS buffer (PBS/1% BSA/0.05% NaN3). Number of leukocytes per ml and viability were assessed with a ViCell cell counter (Beckman and Coulter). Viability was always over 90%. Cells were then processed for extracellular staining with the indicated surface markers. For basophil absolute counts, basophils were identified as FcϵRIα^+CD203c^+CD123^+CD11b^+ cells. For HLA-DR expression analysis, basophils were identified as FcϵRI^+CD203c^+CD11b^+. For CD62L expression analysis, basophils were identified as FcϵRIα^+CD203c^+CD123^+.

FcϵRI = settings: Lin, H. et al. (2004); cited from earlier work

C[C@]12C=CC(=O)C=C1CC[C@@H]1[C@@H]2C(=O)C[C@@]2(C)[C@H]1CC[C@]2(O)C(=O)CO [prednisone]
HLA-DR expressing basophils (blood basophils): no difference
number of peripheral basophils (blood basophils): no difference

omalizumab: recombinant DNA-derived humanized IgG monoclonal antibody that selectively binds to human immunoglobulin E (IgE)
FcϵRI expression on basophils (FcϵRI): decreases FcϵRI expression on basophils
